Tested on: bacteria
Test: bacteria growth within chambers of a bacteria culture array with or without ampicillin (FIG. 33)
Assay type: cell-based
Settings: chambers that included ampicillin vs chambers without ampicillin; FIG. 33, graph 168
From the text: Furthermore, the bacteria culture arrays of the present disclosure may be used to assess the effect of drugs on bacteria samples. For instance, single cells of bacteria may be added the chambers of a bacteria culture array, and drugs and/or antimicrobial agents may be added to some or all of the chambers. In other words, single cell bacteria activity may be used to conduct population-based analysis of bacteria samples. With this in mind, FIG. 33 is a graph 168 showing bacteria growth within chambers of a bacteria culture array.
Visual confirmation of the results shown in the graph 168 were also obtained. FIG. 34 is images […] of the chambers of the bacteria culture array.

CC1(C)S[C@@H]2[C@H](NC(=O)[C@H](N)c3ccccc3)C(=O)N2[C@H]1C(=O)O [ampicillin]
bacteria growth within chambers of a bacteria culture array: hindrance to growth
